62 compounds from patent publication US20230406829A1, “Heterocyclic Compound and Preparation Method and Use Thereof” (SYNTRON (JIANGSU) PHARMACEUTICAL TECHNOLOGY CO., LTD., priority 2020, published 2023) can be followed below.

The first test has as its target T1, VISTA protein modified by glycosylation (Homo sapiens, UniProt Q9H7M9).
T1 sequence (Q9H7M9 33-311): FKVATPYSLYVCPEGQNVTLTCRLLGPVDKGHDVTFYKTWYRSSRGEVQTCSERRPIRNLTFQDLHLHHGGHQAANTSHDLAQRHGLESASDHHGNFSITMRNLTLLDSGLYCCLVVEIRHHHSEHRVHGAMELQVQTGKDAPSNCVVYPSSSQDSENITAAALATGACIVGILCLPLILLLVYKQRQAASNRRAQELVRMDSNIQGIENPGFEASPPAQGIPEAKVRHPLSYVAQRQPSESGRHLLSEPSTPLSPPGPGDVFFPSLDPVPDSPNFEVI
The experiment in a line: Binding ability of compounds to VISTA protein (Biacore S200, CM5 chip). As to conditions: compound diluted in 1.05*PBS-P, fitted. An excerpt:
Ability ability of compounds to VISTA protein • (I) Experimental Equipment and Reagents • 1. The machine model used in this experiment is: Biacore S200. • 2. S-series CM5 chip. […] Goods number: BR-1000-50, the purchase place is GE Healthcare. • 4.
As for `CC(=O)NCCNCc1cccc(-c2nc3c(C)c(-c4ccccc4)ccc3[nH]2)c1` [Compound 1], the dissociation constant Kd came to 153 nM.
As for `Cc1c(-c2ccccc2)ccc2nc(-c3cccc(CNCCN)c3)[nH]c12` [Compound 7], binding was put at a Kd of 461 nM.
Same read-out and setting: for `CC(=O)NCCNCc1ccc(-c2nc3ccc(-c4ccccc4)c(C)c3[nH]2)cc1` [Compound 10] the value was 338 nM.

The target in a further test is T2, recombinant human VISTA protein (Homo sapiens, UniProt Q9H7M9).
T2 construct: purchased R & D Systems 7126-B7
T2 sequence (Q9H7M9 with tags, fused parts or gaps limits assumed): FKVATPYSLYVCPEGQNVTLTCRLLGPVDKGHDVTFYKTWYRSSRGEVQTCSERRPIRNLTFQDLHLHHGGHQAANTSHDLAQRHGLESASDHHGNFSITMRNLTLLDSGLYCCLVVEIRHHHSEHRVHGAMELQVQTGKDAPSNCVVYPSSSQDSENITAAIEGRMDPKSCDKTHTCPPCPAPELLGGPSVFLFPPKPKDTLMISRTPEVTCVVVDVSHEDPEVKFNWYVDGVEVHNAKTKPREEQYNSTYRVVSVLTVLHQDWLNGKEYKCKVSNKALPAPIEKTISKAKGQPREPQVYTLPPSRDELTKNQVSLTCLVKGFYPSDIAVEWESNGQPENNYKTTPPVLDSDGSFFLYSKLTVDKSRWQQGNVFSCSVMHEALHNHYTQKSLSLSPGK
The experiment in a line: Inhibition of VISTA interaction: rescue of IFN-γ release in human PBMC (ELISA). The test is classed as cell-based. As to conditions: 72 h, read-out: IC50 (VISTA interaction inhibitory activity). The method, then: • 2. Determination of the inhibition effect of the compounds against VISTA interaction: • (1) Experimental Equipment and Reagents • 1. […] SpectraMax i3X Multifunction microplate reader (Molecular Device) • 3. […] Experimental procedure: • 1.1 Recombinant human VISTA (2.5 μg/ml) and anti-human CD3 antibody (2.5 μg/ml) were added to 96-well plates and stored in 4 C overnight. • 1.2 The next day, the anti-human VISTA antibody was added to the co-incubation for 30 min. Thereafter, cells were washed with 1*PBS and test compounds were added for 30 min. […] At 37 C, 5% CO2Below the conditions, the incubation was continued for 72 h. • 1.3 After separation by centrifugation at 4 C, 200 g*5 min, the supernatant was collected.
Regarding `CC(=O)NCCNCc1cccc(-c2nc3c(C)c(-c4ccccc4)ccc3[nH]2)c1` [Compound 1], the IC50 fell in the range of 1 to 100 nM.
On the same count and under the same terms, the result for `Cc1c(-c2ccccc2)ccc2nc(-c3cccc(CNCC(=O)O)c3)[nH]c12` [Compound 2] reads 100 to 1000 nM.
Turning to `Cc1c(-c2ccccc2)ccc2[nH]c(-c3cccc(CN4CCCC[C@H]4C(=O)O)c3)nc12` [Compound 4], the half-inhibitory concentration (IC50) was 1 to 100 nM.
Still for that read-out and setting: for `Cc1c(-c2ccccc2)ccc2[nH]c(-c3cccc(CN[C@H](CO)C(=O)O)c3)nc12` [Compound 5] the value was 1 to 100 nM.
On the same count and under the same terms, for `Cc1c(-c2ccccc2)ccc2[nH]c(-c3cccc(CNC[C@@H](O)CC(=O)O)c3)nc12` [Compound 6] the value was 1 to 100 nM.
The same measure, in the same setting: the result for `Cc1c(-c2ccccc2)ccc2nc(-c3cccc(CNCCN)c3)[nH]c12` [Compound 7] reads 1 to 100 nM; that for `Cc1c(-c2ccccc2)ccc2[nH]c(-c3cccc(CN4CC[C@@H](O)C4)c3)nc12` [Compound 8], 100 to 1000 nM.
In the case of `Cc1c(-c2ccccc2)ccc2[nH]c(-c3cccc(CNC[C@@H]4CCNC4=O)c3)nc12` [Compound 9], the IC50 lay within 1 to 100 nM.
Same read-out and setting: the result for `CC(=O)NCCNCc1ccc(-c2nc3ccc(-c4ccccc4)c(C)c3[nH]2)cc1` [Compound 10] reads 100 to 1000 nM; that for `Cc1c(-c2ccccc2)ccc2[nH]c(-c3ccc(CNCC(=O)O)cc3)nc12` [Compound 11], 1 to 100 nM.
On the same count and under the same terms, for `Cc1c(-c2ccccc2)ccc2nc(-c3ccc(CNCCO)cc3)[nH]c12` [Compound 12] the value was 100 to 1000 nM.
Same read-out and setting: the result for `Cc1c(-c2ccccc2)ccc2[nH]c(-c3ccc(CN4CCCC[C@H]4C(=O)O)cc3)nc12` [Compound 13] reads 1 to 100 nM.
Turning to `Cc1c(-c2ccccc2)ccc2[nH]c(-c3ccc(CN[C@H](CO)C(=O)O)cc3)nc12` [Compound 14], the half-inhibitory concentration (IC50) lay within 100 to 1000 nM.
For the compound `Cc1c(-c2ccccc2)ccc2[nH]c(-c3ccc(CNC[C@@H](O)CC(=O)O)cc3)nc12` [Compound 15], the 50% inhibitory concentration (IC50) lay within 1 to 100 nM.
On the same count and under the same terms, for `CC(=O)NCCNCc1cccc(-c2nc3c(Br)c(-c4ccccc4)ccc3[nH]2)c1` [Compound 16] the value was 1 to 100 nM; for `CC(=O)NCCNCc1cccc(-c2nc3c(Cl)c(-c4ccccc4)ccc3[nH]2)c1` [Compound 17], 1 to 100 nM; for `CC(=O)NCCNCc1cccc(-c2nc3c(C)c(-c4ccc5c(c4)OCCO5)ccc3[nH]2)c1` [Compound 18], 1 to 100 nM.
On the same count and under the same terms, the result for `COc1cccc(-c2nc3c(C)c(-c4ccccc4)ccc3[nH]2)c1` [Compound 19] reads 100 to 1000 nM.
On the same count and under the same terms, for `Cc1c(-c2ccccc2)ccc2[nH]c(-c3cccc(OCc4ccccc4)c3)nc12` [Compound 20] the value was 1 to 100 nM.
As to `Cc1c(-c2ccccc2)ccc2[nH]c(-c3cccc(OCc4cccnc4)c3)nc12` [Compound 21], the IC50 was in the range of 100 to 1000 nM.
The same measure, in the same setting: the result for `Cc1c(-c2ccccc2)ccc2[nH]c(-c3ccc(CNCCO)c(OCc4cccnc4)c3)nc12` [Compound 22] reads 1 to 100 nM; that for `COc1cc(-c2nc3c(C)c(-c4ccccc4)ccc3[nH]2)ccc1CN1CC[C@@H](O)C1` [Compound 23], 1 to 100 nM; that for `COc1cc(-c2nc3c(C)c(-c4ccccc4)ccc3[nH]2)ccc1CNC[C@@H]1CCC(=O)N1` [Compound 24], 1 to 100 nM.
For `Cc1c(-c2ccccc2)ccc2nc(-c3ccc(CNCCO)cc3)cn12` [Compound 25], the 50% inhibitory concentration (IC50) lay within 100 to 1000 nM.
Turning to `CC(=O)NCCNCc1ccc(-c2cn3c(C)c(-c4ccccc4)ccc3n2)cc1` [Compound 26], the half-maximal inhibitory concentration (IC50) lay within 100 to 1000 nM.
Same read-out and setting: the result for `Cc1c(-c2ccccc2)ccc2nc(-c3cccc(CNCCO)c3)cn12` [Compound 27] reads 1 to 100 nM.
The same measure, in the same setting: the result for `CC(=O)NCCNCc1cccc(-c2nc3ccc(Br)c(C)c3[nH]2)c1` [Compound 28] reads 1 to 100 nM.
Still for that read-out and setting: the result for `CC(=O)NCCNCc1cccc(-c2nc3ccccc3[nH]2)c1` [Compound 29] reads 1 to 100 nM; that for `CC(=O)NCCNC(=O)c1cccc(-c2nc3c(C)c(-c4ccccc4)ccc3[nH]2)c1` [Compound 30], 1 to 100 nM; that for `Cc1c(-c2ccccc2)ccc2[nH]c(-c3cccc(C(=O)O)c3)nc12` [Compound 31], 1 to 100 nM.
Regarding `CC(=O)NCCNCc1cccc(-c2nc3cc(-c4ccccc4)ccc3[nH]2)c1` [Compound 32], the half-maximal inhibitory concentration (IC50) lay in the range of 1 to 100 nM.
Still for that read-out and setting: for `CC(=O)NCCNCc1cccc(-c2nc3cc(C)ccc3[nH]2)c1` [Compound 34] the value was 1 to 100 nM; for `COc1ccc2[nH]c(-c3cccc(CNCCNC(C)=O)c3)nc2c1` [Compound 35], 100 to 1000 nM; for `CC(=O)NCCNCc1cccc(-c2nc3c(F)c(-c4ccccc4)ccc3[nH]2)c1` [Compound 36], 1 to 100 nM.
Still for that read-out and setting: for `CC(=O)NCCNCc1cccc(-c2nc3c(C(F)(F)F)c(-c4ccccc4)ccc3[nH]2)c1` [Compound 37] the value was 100 to 1000 nM.
On the same count and under the same terms, the result for `Cc1c(-c2ccccc2)ccc2[nH]c(-c3cccc(C(=O)NCCO)c3)nc12` [Compound 38] reads 1 to 100 nM.
For `Cc1c(-c2ccccc2)ccc2[nH]c(-c3cccc(OCCNCCO)c3)nc12` [Compound 39], the half-maximal inhibitory concentration (IC50) lay within 100 to 1000 nM.
On the same count and under the same terms, the result for `Cc1c(-c2ccccc2)ccc2[nH]c(-c3cccc(COCCN)c3)nc12` [Compound 40] reads 100 to 1000 nM; that for `Cc1c(-c2ccccc2)ccc2[nH]c(-c3cccc(S(=O)(=O)NCCO)c3)nc12` [Compound 41], 100 to 1000 nM.
Still for that read-out and setting: the result for `CCCOC(=O)c1cccc(-c2nc3c(C)c(-c4ccccc4)ccc3[nH]2)c1` [Compound 42] reads 100 to 1000 nM; that for `CC(=O)NCCNCc1cccc(-c2cc3ccccn3c2)c1` [Compound 43], 100 to 1000 nM.
Take `CC(=O)NCCNCc1cccc(-c2cc3c(C)c(-c4ccccc4)ccn3c2)c1` [Compound 44]: the half-maximal inhibitory concentration (IC50) was 100 to 1000 nM.
The same measure, in the same setting: for `CC(=O)NCCNCc1cccc(-c2cc3ccncn3c2)c1` [Compound 45] the value was 1 to 100 nM; for `COc1cc2cc(-c3cccc(CNCCNC(C)=O)c3)cn2cn1` [Compound 46], 1 to 100 nM; for `CC(=O)NCCNCc1cccc(-c2cn3ccc(-c4ccccc4)nc3n2)c1` [Compound 47], 1 to 100 nM.
The same measure, in the same setting: the result for `CC(=O)NCCNCc1cccc(-c2cn3ncc(-c4ccccc4)c(C)c3n2)c1` [Compound 48] reads 100 to 1000 nM; that for `CC(=O)NCCNCc1cccc(-c2nc3cc(CO)ccn3n2)c1` [Compound 49], 100 to 1000 nM.
Still for that read-out and setting: for `CC(=O)NCCNCc1cccc(-c2nc3c(C)c(-c4ccccc4)ccn3n2)c1` [Compound 50] the value was 100 to 1000 nM.
Turning to `CC(=O)NCCNCc1cccc(C2=CC3C=CC(c4ccccc4)=NC3O2)c1` (centres unmarked) [Compound 51], the half-maximal inhibitory concentration (IC50) was 100 to 1000 nM.
`CC(=O)NCCNCc1cccc(C2=NC3C=CC(c4ccccc4)=C(C)C3O2)c1` (centres unmarked) [Compound 52]: the 50% inhibitory concentration (IC50) lay within 100 to 1000 nM.
On the same count and under the same terms, the result for `CC(=O)NCCNCc1cccc(C2=NC3C=CC(c4ccccc4)=C(C)C3S2)c1` (centres unmarked) [Compound 53] reads 100 to 1000 nM; that for `CC(=O)NCCNCc1cccc(-c2nc3c(O)c(-c4ccccc4)ccc3[nH]2)c1` [Compound 54], 100 to 1000 nM.
Consider `COc1c(-c2ccccc2)ccc2[nH]c(-c3cccc(CNCCNC(C)=O)c3)nc12` [Compound 55], for which the IC50 was 1 to 100 nM.
On the same count and under the same terms, for `CCc1c(-c2ccccc2)ccc2[nH]c(-c3cccc(CNCCNC(C)=O)c3)nc12` [Compound 56] the value was 1 to 100 nM.
The same measure, in the same setting: the result for `CC(=O)NCCNCc1cccc(-c2nc3c(C#N)c(-c4ccccc4)ccc3[nH]2)c1` [Compound 57] reads 1 to 100 nM; that for `CC(=O)NCCNCc1cccc(-c2nc3c(CO)c(-c4ccccc4)ccc3[nH]2)c1` [Compound 58], 100 to 1000 nM; that for `CC(=O)NCCNCc1cccc(-c2nc3c(O)cccc3[nH]2)c1` [Compound 59], 1 to 100 nM.
Turning to `CC(=O)NCCNCc1cccc(-c2nc3c(O)c(O)ccc3[nH]2)c1` [Compound 60], the IC50 lay in the range of 1 to 100 nM.
The same measure, in the same setting: the result for `CC(=O)NCCNCc1cccc(-c2nc3c4c(ccc3[nH]2)OCCO4)c1` [Compound 61] reads 100 to 1000 nM.
Same read-out and setting: the result for `CC(=O)NCCNCc1cccc(-c2nc3cc(-c4ccco4)ccc3[nH]2)c1` [Compound 62] reads 100 to 1000 nM; that for `CC(=O)NCCNCc1cccc(-c2nc3cc(OCc4ccccc4)ccc3[nH]2)c1` [Compound 63], 100 to 1000 nM; that for `CC(=O)NCCNCc1cccc(-c2nc3cc(C#N)ccc3[nH]2)c1` [Compound 64], 1 to 100 nM.
